Results taken from patent publication US20250034150A1, “BTK INHIBITORS” (BIOGEN MA INC., priority 2021, published 2025).
Counter-ions that a name gives are not always drawn.

Assays:
BTK = target: T1, BTK (Homo sapiens, UniProt Q06187); test: In Vitro BTK Kinase Assay: Btk-PolyGAT-LS Assay; assay type: biochemical; settings: active BTK enzyme 0.25 nM, polyGAT 100 nM, 30 minutes, TRF readout; read-out: In Vitro BTK Kinase Assay IC50 Score
T1 construct: purchased Upstate 14-552
Procedure: The purpose of the BTK in vitro assay is to determine compound potency against BTK through the measurement of IC50. Compound inhibition is measured after monitoring the amount of phosphorylation of a fluorescein-labeled polyGAT peptide (Invitrogen PV3611) in the presence of active BTK enzyme (Upstate 14-552), ATP, and inhibitor. The BTK kinase reaction was done in a black 96 well plate (costar 3694). For a typical assay, a 24 μL aliquot of a ATP/peptide master mix (final concentration; ATP […], polyGAT 100 nM) in kinase buffer (10 mM Tris-HCl pH 7.5, 10 mM MgCl2, 200 μM […], 5 mM DTT, 0.01% Triton X-100, and 0.2 mg/ml casein) is added to each well. Next, […] of a 4-fold, 40× compound titration in 100% DMSO solvent is added, followed by adding 15 μL of BTK enzyme mix in 1× kinase buffer (with a final concentration of 0.25 nM). The assay is incubated for 30 minutes before being stopped with 28 μL of a 50 mM EDTA solution. Aliquots (5 uL) of the kinase reaction are transferred to a low volume white 384 well plate (Coming 3674), and 5 μL of a 2× detection buffer (Invitrogen PV3574, with 4 nM Tb—PY20 antibody, Invitrogen PV3552) is added. The plate is covered and incubated for 45 minutes at room temperature. Time resolved fluorescence (TRF) on Molecular Devices M5 (332 nm excitation; 488 nm emission; 518 nm fluorescein emission) is measured. IC50 values are calculated using a four parameter fit with 100% enzyme activity determined from the DMSO control and 0% activity from the EDTA control.

[1] = tested on: CD69 expression on CD19+ B cells in human whole blood; test: In Vitro whole blood CD69 Assay; assay type: cell-based; settings: B-cell; human heparinized whole blood, anti-human IgD stimulation overnight, CD19+ B cells, flow cytometry; read-out: In Vitro HWB CD69 Assay IC50 Score
Procedure: Human heparinized venous blood from health donors was aliquoted into 96-well plate and “spiked” with serial dilutions of formula I compounds in DMSO or with DMSO without drug. The final concentration of DMSO in all wells was 0.1%. The plate was incubated at 37° C. for 30 min. Drug-containing samples were stimulated with 0.1 μg/mL mouse anti-human IgD-dextran (1A62) or 20 μg/mL polyclonal rabbit F(ab′)2 anti-human IgD. Phosphate-buffered saline (PBS) was added to the negative control unstimulated sample and the plates were incubated overnight (18 to 22 hours) at 37° C. Cells were stained with fluorochrome-conjugated anti-CD19 and anti-CD69 antibodies. Lyse/fix solution was used to remove red blood cells by hypotonic lysis and to fix the remaining cells, which were then analyzed by flow cytometry. CD19+ B cells were gated and analyzed for CD69 expression.

T1 sequence (Q06187 whole entry): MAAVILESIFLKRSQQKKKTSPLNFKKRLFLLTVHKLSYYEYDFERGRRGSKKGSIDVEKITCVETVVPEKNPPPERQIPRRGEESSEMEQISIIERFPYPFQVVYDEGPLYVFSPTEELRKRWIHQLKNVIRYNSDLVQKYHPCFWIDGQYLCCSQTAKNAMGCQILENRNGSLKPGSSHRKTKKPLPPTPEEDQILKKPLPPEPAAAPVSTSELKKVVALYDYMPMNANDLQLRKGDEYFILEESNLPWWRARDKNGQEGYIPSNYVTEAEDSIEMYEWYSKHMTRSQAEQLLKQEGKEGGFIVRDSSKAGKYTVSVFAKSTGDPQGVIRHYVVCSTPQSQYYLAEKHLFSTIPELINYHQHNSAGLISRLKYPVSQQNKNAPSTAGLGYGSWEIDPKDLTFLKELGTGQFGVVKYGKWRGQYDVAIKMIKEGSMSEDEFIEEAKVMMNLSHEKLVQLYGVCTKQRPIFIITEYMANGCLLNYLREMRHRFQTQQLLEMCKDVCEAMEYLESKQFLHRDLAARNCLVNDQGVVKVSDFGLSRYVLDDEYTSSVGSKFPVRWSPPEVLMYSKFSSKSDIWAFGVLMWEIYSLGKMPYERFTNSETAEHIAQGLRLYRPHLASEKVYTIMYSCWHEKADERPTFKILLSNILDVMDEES

Compound	IC50 (BTK)	IC50 [1]
Cn1cc(-c2cn3nccc3c(N3CCC(CN4CCN(CC5CCC5)CC4=O)CC3)n2)cn1 [Example 169, 4-(Cyclobutylmethyl)-1-((1-(6-(1-methyl-1H-pyrazol-4-yl)pyrazolo[1,5-a]pyrazin-4-yl)piperidin-4-yl)methyl)piperazin-2-one]	10 to 1000 nM	–
CN1CCN(CC2CCN(c3nc(-c4cnn(C)c4)cn4nccc34)CC2)C(=O)C1 [Example 171, 4-methyl-1-((1-(6-(1-methyl-1H-pyrazol-4-yl)pyrazolo[1,5-a]pyrazin-4-yl)piperidin-4-yl)methyl)piperazin-2-one]	1000 to 10000 nM	–
Cn1cc(-c2cn3nccc3c(N3CCC(C)(CNC(=O)c4noc(C5(C)CC5)n4)C3)n2)cn1 (stereo not shown) [Example 51, N-((3-methyl-1-(6-(1-methyl-1H-pyrazol-4-yl)pyrazolo[1,5-a]pyrazin-4-yl)pyrrolidin-3-yl)methyl)-5-(1-methylcyclopropyl)-1,2,4-oxadiazole-3-carboxamide]	1000 to 10000 nM	–
Cn1cc(-c2cn3nccc3c(N3CCC(C)(CNC(=O)c4cnc(C(C)(C)C)o4)C3)n2)cn1 (stereo not shown) [Example 50, 2-(tert-butyl)-N-((3-methyl-1-(6-(1-methyl-1H-pyrazol-4-yl)pyrazolo[1,5-a]pyrazin-4-yl)pyrrolidin-3-yl)methyl)oxazole-5-carboxamide]	1000 to 10000 nM	–
Cn1cc(-c2cn3nccc3c(N3CC[C@H](CNC(=O)c4noc(C(C)(C)C)n4)C(F)(F)C3)n2)cn1 (single isomer, unassigned) [Example 159]	10 to 1000 nM	–
Cn1cc(-c2cn3nccc3c(N3CCC(C)(CNC(=O)c4nnn(C(C)(C)C)n4)C3)n2)cn1 (stereo not shown) [Example 48, 2-(tert-butyl)-N-((3-methyl-1-(6-(1-methyl-1H-pyrazol-4-yl)pyrazolo[1,5-a]pyrazin-4-yl)pyrrolidin-3-yl)methyl)-2H-tetrazole-5-carboxamide]	10 to 1000 nM	–
Cn1cc(-c2cn3nccc3c(N3CCC4(CC(NC(=O)c5noc(C(C)(C)C)n5)C4)C3)n2)cn1 (stereo not shown) [Example 52, 5-(tert-butyl)-N-(6-(6-(1-methyl-1H-pyrazol-4-yl)pyrazolo[1,5-a]pyrazin-4-yl)-6-azaspiro[3.4]octan-2-yl)-1,2,4-oxadiazole-3-carboxamide]	1000 to 10000 nM	–
CC(C)(C)n1ccc(C(=O)NCc2ccc(-c3nc(N4CCOCC4)cn4nccc34)cc2)n1 [Example 28, 1-(tert-butyl)-N-(4-(6-morpholinopyrazolo[1,5-a]pyrazin-4-yl)benzyl)-1H-pyrazole-3-carboxamide]	1000 to 10000 nM	–
Cc1cc(-c2nc(N3CCOCC3)cn3nccc23)ccc1CNC(=O)c1noc(C2(C)CC2)n1 [Example 126, N-(2-methyl-4-(6-morpholinopyrazolo[1,5-a]pyrazin-4-yl)benzyl)-5-(1-methylcyclopropyl)-1,2,4-oxadiazole-3-carboxamide]	1 to 10 nM	–
CCCN1CCN(CC2CCN(c3nc(-c4cnn(C)c4)cn4nccc34)CC2)C(=O)C1 [Example 170, 1-((1-(6-(1-methyl-1H-pyrazol-4-yl)pyrazolo[1,5-a]pyrazin-4-yl)piperidin-4-yl)methyl)-4-propylpiperazin-2-one hydrochloride]	1000 to 10000 nM	–
CC(C)(C)c1nnc(C(=O)NCc2ccc(-c3nc(N4CCOCC4)cn4nccc34)cc2)o1 [Example 29, 5-(tert-butyl)-N-(4-(6-morpholinopyrazolo[1,5-a]pyrazin-4-yl)benzyl)-1,3,4-oxadiazole-2-carboxamide]	1000 to 10000 nM	–
CC(C)(C)c1nc(C(=O)NCc2ccc(-c3nc(N4CCOCC4)cn4nccc34)cc2F)co1 [Example 125, 2-(tert-butyl)-N-(2-fluoro-4-(6-morpholinopyrazolo[1,5-a]pyrazin-4-yl)benzyl)oxazole-4-carboxamide]	10 to 1000 nM	–
Cn1cc(-c2cn3nccc3c(N3CC4CCC(C3)C4CNC(=O)c3noc(C(C)(C)C)n3)n2)cn1 [Example 165, 5-(tert-butyl)-N-(((1R,5S,8r)-3-(6-(1-methyl-1H-pyrazol-4-yl)pyrazolo[1,5-a]pyrazin-4-yl)-3-azabicyclo[3.2.1]octan-8-yl)methyl)-1,2,4-oxadiazole-3-carboxamide]	10 to 1000 nM	–
Cn1cc(-c2cn3nccc3c(N3CCC4(CC(NC(=O)c5noc(C(C)(C)C)n5)C4)C3)n2)cn1 (single isomer, unassigned) [Example 54, 5-(tert-butyl)-N-((2s,4r)-6-(6-(1-methyl-1H-pyrazol-4-yl)pyrazolo[1,5-a]pyrazin-4-yl)-6-azaspiro[3.4]octan-2-yl)-1,2,4-oxadiazole-3-carboxamide]	1000 to 10000 nM	–
Cc1cc(-c2nc(-c3cnn(C)c3)cn3nccc23)ccc1CN1CCN(CC2COC2)CC1=O [Example 32, 1-(2-methyl-4-(6-(1-methyl-1H-pyrazol-4-yl)pyrazolo[1,5-a]pyrazin-4-yl)benzyl)-4-(oxetan-3-ylmethyl)piperazin-2-one]	10 to 1000 nM	–

Second part, the compound after the results:

IC50 (BTK)	IC50 [1]	Compound
< 1 nM	< 1000 nM	Cn1cc(-c2cn3nccc3c(-c3ccc4c(c3)CN(C3COC3)CC[C@H]4NC(=O)c3cn(C(C)(C)C)nn3)n2)cn1 [Example 39, 1-tert-butyl-N-[(5R)-8-[6-(1-methylpyrazol-4-yl)pyrazolo[1,5-a]pyrazin-4-yl]-2-(oxetan-3-yl)-1,3,4,5-tetrahydro-2-benzazepin-5-yl]triazole-4-carboxamide]
1 to 10 nM	1000 to 10000 nM	Cn1cc(-c2cn3nccc3c(-c3ccc(CNC(=O)c4ccn(C(C)(C)C)n4)c(F)c3F)n2)cn1 [Example 91, 1-(tert-butyl)-N-(2,3-difluoro-4-(6-(1-methyl-1H-pyrazol-4-yl)pyrazolo[1,5-a]pyrazin-4-yl)benzyl)-1H-pyrazole-3-carboxamide]
< 1 nM	< 1000 nM	Cn1cc(-c2cn3nccc3c(-c3ccc(CNC(=O)c4cn(C(C)(C)C)nn4)c(C(F)F)c3)n2)cn1 [Example 105, 1-(tert-butyl)-N-(2-(difluoromethyl)-4-(6-(1-methyl-1H-pyrazol-4-yl)pyrazolo[1,5-a]pyrazin-4-yl)benzyl)-1H-1,2,3-triazole-4-carboxamide]
10 to 1000 nM	–	Cn1cc(-c2cc(-c3ccc(CNC(=O)c4cn(C(C)(C)C)nn4)cc3)n3cnnc3c2)cn1 [Example 75, 1-(tert-butyl)-N-(4-(7-(1-methyl-1H-pyrazol-4-yl)-[1,2,4]triazolo[4,3-a]pyridin-5-yl)benzyl)-1H-1,2,3-triazole-4-carboxamide]
10 to 1000 nM	–	CC(C)(C)n1cc(C(=O)NCc2ccc(-c3nc(N4CCOCC4)cn4nccc34)cc2)nn1 [Example 26, 1-(tert-butyl)-N-(4-(6-morpholinopyrazolo[1,5-a]pyrazin-4-yl)benzyl)-1H-1,2,3-triazole-4-carboxamide]
10 to 1000 nM	–	Cn1cc(-c2cn3nccc3c(-c3ccc(CNC(=O)c4ccn(C(C)(C)C)n4)cc3F)n2)cn1 [Example 111, 1-(tert-butyl)-N-(3-fluoro-4-(6-(1-methyl-1H-pyrazol-4-yl)pyrazolo[1,5-a]pyrazin-4-yl)benzyl)-1H-pyrazole-3-carboxamide]
10 to 1000 nM	–	Cn1cc(-c2cn3nccc3c(N3CCC(F)(CNC(=O)c4cn(C(C)(C)C)nn4)CC3)n2)cn1 [Example 162, 1-(tert-butyl)-N-((4-fluoro-1-(6-(1-methyl-1H-pyrazol-4-yl)pyrazolo[1,5-a]pyrazin-4-yl)piperidin-4-yl)methyl)-1H-1,2,3-triazole-4-carboxamide trifluoroacetate]
10 to 1000 nM	–	CN1CCN(c2cn3nccc3c(-c3ccc(CNC(=O)c4coc(C(C)(C)C)n4)c(F)c3)n2)CC1 [Example 129, 2-(tert-butyl)-N-(2-fluoro-4-(6-(4-methylpiperazin-1-yl)pyrazolo[1,5-alpyrazin-4-yl)benzyl)oxazole-4-carboxamide trifluoroacetate]
10 to 1000 nM	–	C[C@H]1C[C@@H](CNC(=O)c2cn(C(C)(C)C)nn2)CCN1c1nc(-c2cnn(C)c2)cn2nccc12 (single isomer, unassigned) [Example 142]
1 to 10 nM	–	Cn1cc(-c2cn3nccc3c(-c3ccc(CNC(=O)c4ccn(C(C)(C)C)n4)c(C(F)F)c3)n2)cn1 [Example 103, 1-(tert-butyl)-N-(2-(difluoromethyl)-4-(6-(1-methyl-1H-pyrazol-4-yl)pyrazolo[1,5-a]pyrazin-4-yl)benzyl)-1H-pyrazole-3-carboxamide]
